# Laboratory results reported in publication PMC10887214 (Biomedicines, 2024).
# Tests used:
# C57BL/6J mice [1] = test: Morris Water Maze (MWM); format: in vivo, mouse; conditions: i.p., OS 2 mg/kg
# Description: (§1) Animal housing. Forty-eight Male C57BL/6J mice were purchased from Janvier Labs (Le Genest-Saint-Isle, France) and were time-specifically housed in a 12 h light-dark cycle (lights on at 7 am), with ad libitum water and food in conditioned rooms (22 °C, humidity ~60%).
# (§2) Behavior assays. All mice were subjected to a behavioral test battery that consisted of several general performance tasks of locomotor activity, exploratory and anxiety-like behavior, and learning and memory. Mice were divided into four groups: Vehicle, OS (2 mg/kg), WIN55 (0.5 mg/kg), or OS + WIN. Each group consisted of 7–14 mice that received two i.p injections before each test, with a 10 min interval between each injection. Veh + Veh were injected with PBS. Veh + WIN were injected with PBS and WIN55. Veh + OS were injected with PBS and OS. OS + WIN were injected with OS and WIN55. PBS was used as vehicle as it was used for dilution of drugs. Tests were performed in the order described below after 10 min of the last injection, with a 24 h interval between each test.
# Morris Water Maze (MWM): MWM [32] was used to assess the effects of OS, WIN, and OS + WIN in memory one day after the EPM test. MWM is a gold standard test to assess learning and memory consisting of 10 days of training and two probe trials in a pool with water at a temperature of 26 °C, with one submersed platform invisible to mice. Each mouse could try to find the platform for 100 s, four times per day, with an inter-trial interval of 15–30 min. In each trial, animals were released randomly from each of the four starting positions. This protocol of training was repeated for ten days (training sessions). The platform was removed on the 6th and 11th days, and the animals were left free to swim for 100 s (probe trials). Right after the first probe trial (day 6), animals were trained again with the platform at the same place. During the training sessions, the mean latency to find the platform for the session was calculated for each animal as the average of the four trials of the day. During the probe trials, the pool was divided into four equal virtual quadrants, and the time spent in the target quadrant (TQ) (i.e., the quadrant where the platform was located during the training sessions) was assessed as a measure of memory retention. For this test, we used Veh (n = 9), OS (n = 8), WIN (n = 8), OS + WIN (n = 14).
# C57BL/6J mice [2] = test: Open Field (OF); format: in vivo, mouse; conditions: i.p.
# Description: as §1, §2
# Open Field (OF): One day after the cage activity test, mice were tested in the OF paradigm. The OF aimed to test the OS, WIN, and OS + WIN effect on animal locomotion and exploratory behavior. Animals were placed in the test room one hour before starting the test. For the OF, animals were placed in a plexiglass box (60 × 60 × 60 cm) divided into three zones (center, periphery, and corners) for 10 min and left free to explore. Total distance and time in zones were counted. Here, more time in the center meant an anxiolytic effect, and a higher distance walking meant an increase in locomotor activity. For this test, we used Veh (n = 8), OS (n = 10), WIN (n = 7), OS + WIN (n = 8).
# α7-nAChR = α7-nAChR (Homo sapiens, UniProt P36544)
# CB1 receptor (hCB1) = target: T1, CB1 receptor (hCB1) (Homo sapiens, UniProt P21554); test: Two-electrode voltage-clamp, CB1-GIRK1/GIRK2-RGS4 coupling system expressed in Xenopus oocytes; format: cell-based
# T1 construct: expressed in transfected cells; host or cells: Xenopus laevis oocytes (cRNA injection)
# T1 sequence (P21554 whole entry): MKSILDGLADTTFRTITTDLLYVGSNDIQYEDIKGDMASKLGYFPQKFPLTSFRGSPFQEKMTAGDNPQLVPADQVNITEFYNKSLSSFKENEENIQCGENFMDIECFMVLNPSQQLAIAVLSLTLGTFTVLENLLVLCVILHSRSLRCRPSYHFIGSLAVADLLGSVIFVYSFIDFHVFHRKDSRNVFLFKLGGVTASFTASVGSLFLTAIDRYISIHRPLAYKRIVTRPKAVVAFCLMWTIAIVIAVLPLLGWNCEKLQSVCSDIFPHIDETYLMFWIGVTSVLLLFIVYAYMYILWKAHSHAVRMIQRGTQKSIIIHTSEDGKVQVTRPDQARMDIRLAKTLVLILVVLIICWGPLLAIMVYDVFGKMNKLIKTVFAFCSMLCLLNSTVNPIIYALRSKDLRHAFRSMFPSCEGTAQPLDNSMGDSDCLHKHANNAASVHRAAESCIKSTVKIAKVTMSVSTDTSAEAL
# MRGPRX2 = MRGPRX2 (Homo sapiens, UniProt Q96LB1)
# MOR = MOR (Homo sapiens, UniProt P35372)
# non-injected oocytes = test: Two-electrode voltage-clamp on non-injected oocytes; format: cell-based, Xenopus laevis; conditions: 100 μM OS, ND96
# Text: Isolation of Xenopus laevis oocytes. All procedures for the use and handling of adult female Xenopus laevis frogs (CRB Xénopes, Rennes, France) were approved by the Animal Ethics Committee of the KU Leuven (Project No. P186/2019) following regulations of the European Union (EU) concerning the welfare of laboratory animals as declared in Directive 2010/63/EU. Oocytes were isolated as described previously. Stage V–VI Xenopus laevis oocytes were isolated by partial ovariectomy. The animals were anesthetized by a 15 min submersion in 0.1% tricaine methane sulfonate (Sigma-Aldrich Chemical, St. Louis, MO, USA) solution (pH 7.0). The oocytes were enzymatically defolliculated by collagenase (3 mg/mL) (Sigma-Aldrich Chemical, St. Louis, MO, USA) digestion at 16 °C on a rocker platform in a Ca^2+-free ND96 solution. Isolated stage V–VI oocytes were then maintained in ND96 solution containing Theophylline and Gentamicin at 16 °C.
# (§3) Electrophysiological measurements.
# KV7.1 = KV7.1 (Homo sapiens, UniProt P51787)
# Sequence of KV7.1 (P51787 whole entry): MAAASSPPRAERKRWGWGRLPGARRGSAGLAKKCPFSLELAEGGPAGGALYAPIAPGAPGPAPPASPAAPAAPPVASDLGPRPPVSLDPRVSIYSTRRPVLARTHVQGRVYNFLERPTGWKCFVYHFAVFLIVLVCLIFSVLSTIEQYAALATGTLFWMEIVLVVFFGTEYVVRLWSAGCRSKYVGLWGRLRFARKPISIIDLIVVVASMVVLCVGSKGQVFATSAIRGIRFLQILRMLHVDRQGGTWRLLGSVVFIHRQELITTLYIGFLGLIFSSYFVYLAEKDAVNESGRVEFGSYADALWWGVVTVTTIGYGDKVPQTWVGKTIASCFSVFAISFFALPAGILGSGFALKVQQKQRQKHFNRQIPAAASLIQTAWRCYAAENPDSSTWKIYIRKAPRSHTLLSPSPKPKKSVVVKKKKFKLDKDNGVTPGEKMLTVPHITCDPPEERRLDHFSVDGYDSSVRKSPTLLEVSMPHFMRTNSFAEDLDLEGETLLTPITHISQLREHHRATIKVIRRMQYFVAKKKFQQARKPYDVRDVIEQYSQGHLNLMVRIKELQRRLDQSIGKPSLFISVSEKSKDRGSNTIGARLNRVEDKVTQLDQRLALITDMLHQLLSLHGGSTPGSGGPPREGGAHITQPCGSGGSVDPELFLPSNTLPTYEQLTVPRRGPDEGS
# NaV1.5 = NaV1.5 (Homo sapiens, UniProt Q14524)
# Sequence of NaV1.5 (Q14524 whole entry): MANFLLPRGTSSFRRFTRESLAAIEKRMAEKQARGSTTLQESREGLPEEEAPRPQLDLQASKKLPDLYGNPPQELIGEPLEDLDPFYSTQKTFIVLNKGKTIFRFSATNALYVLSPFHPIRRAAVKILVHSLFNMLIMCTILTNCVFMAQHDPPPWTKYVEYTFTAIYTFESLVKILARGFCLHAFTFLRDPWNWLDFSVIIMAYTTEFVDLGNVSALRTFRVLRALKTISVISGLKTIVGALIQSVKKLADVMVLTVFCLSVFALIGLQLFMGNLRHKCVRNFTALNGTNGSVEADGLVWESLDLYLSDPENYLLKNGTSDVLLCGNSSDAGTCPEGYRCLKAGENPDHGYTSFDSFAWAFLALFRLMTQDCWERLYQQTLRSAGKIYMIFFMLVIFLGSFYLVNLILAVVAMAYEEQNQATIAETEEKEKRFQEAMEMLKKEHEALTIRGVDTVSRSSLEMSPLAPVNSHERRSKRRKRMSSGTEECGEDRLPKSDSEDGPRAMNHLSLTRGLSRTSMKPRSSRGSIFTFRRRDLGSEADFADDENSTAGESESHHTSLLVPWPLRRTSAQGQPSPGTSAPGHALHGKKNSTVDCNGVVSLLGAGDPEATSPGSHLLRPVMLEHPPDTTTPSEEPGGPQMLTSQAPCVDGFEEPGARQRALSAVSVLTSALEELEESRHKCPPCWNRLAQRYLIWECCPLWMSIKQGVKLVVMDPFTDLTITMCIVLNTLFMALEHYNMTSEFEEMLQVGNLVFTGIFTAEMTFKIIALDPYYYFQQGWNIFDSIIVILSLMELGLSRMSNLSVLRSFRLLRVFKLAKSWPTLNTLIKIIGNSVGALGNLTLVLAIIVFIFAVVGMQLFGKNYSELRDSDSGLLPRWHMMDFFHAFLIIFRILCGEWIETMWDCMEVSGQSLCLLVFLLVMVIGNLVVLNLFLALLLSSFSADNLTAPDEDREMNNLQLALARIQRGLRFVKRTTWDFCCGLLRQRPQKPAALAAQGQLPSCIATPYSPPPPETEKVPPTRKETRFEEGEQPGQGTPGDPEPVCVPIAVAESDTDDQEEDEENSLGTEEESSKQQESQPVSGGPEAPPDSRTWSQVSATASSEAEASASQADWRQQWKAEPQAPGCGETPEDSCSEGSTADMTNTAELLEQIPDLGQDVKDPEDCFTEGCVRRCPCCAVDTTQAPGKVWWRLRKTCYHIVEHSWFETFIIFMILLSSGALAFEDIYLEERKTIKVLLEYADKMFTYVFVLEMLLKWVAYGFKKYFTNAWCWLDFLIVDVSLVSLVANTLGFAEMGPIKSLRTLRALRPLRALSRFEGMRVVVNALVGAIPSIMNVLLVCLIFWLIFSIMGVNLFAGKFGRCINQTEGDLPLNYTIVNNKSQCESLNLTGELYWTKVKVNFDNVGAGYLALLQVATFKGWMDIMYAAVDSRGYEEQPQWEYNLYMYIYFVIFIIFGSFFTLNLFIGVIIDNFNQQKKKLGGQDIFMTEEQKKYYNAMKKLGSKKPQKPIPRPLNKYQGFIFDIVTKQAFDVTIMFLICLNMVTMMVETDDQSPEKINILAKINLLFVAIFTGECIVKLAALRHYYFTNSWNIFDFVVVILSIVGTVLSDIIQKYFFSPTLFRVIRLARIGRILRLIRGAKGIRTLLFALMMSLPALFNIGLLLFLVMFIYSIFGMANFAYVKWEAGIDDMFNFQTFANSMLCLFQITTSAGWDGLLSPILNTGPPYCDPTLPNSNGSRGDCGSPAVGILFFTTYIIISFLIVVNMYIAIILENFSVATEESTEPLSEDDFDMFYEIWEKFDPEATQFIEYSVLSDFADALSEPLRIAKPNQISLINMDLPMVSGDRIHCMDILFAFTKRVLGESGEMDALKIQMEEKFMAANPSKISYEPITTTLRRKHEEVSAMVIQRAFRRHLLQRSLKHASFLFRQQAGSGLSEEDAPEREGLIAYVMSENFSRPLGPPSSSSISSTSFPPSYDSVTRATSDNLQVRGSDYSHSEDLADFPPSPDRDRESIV
# Text: as §3
# (§4) (A), (B), (C), and (D) represent that
# (§5) currents through the channels.
# (§6) in oocytes, as described before (6-8).
# hERG = hERG (Homo sapiens, UniProt Q12809)
# Sequence of hERG (Q12809 whole entry): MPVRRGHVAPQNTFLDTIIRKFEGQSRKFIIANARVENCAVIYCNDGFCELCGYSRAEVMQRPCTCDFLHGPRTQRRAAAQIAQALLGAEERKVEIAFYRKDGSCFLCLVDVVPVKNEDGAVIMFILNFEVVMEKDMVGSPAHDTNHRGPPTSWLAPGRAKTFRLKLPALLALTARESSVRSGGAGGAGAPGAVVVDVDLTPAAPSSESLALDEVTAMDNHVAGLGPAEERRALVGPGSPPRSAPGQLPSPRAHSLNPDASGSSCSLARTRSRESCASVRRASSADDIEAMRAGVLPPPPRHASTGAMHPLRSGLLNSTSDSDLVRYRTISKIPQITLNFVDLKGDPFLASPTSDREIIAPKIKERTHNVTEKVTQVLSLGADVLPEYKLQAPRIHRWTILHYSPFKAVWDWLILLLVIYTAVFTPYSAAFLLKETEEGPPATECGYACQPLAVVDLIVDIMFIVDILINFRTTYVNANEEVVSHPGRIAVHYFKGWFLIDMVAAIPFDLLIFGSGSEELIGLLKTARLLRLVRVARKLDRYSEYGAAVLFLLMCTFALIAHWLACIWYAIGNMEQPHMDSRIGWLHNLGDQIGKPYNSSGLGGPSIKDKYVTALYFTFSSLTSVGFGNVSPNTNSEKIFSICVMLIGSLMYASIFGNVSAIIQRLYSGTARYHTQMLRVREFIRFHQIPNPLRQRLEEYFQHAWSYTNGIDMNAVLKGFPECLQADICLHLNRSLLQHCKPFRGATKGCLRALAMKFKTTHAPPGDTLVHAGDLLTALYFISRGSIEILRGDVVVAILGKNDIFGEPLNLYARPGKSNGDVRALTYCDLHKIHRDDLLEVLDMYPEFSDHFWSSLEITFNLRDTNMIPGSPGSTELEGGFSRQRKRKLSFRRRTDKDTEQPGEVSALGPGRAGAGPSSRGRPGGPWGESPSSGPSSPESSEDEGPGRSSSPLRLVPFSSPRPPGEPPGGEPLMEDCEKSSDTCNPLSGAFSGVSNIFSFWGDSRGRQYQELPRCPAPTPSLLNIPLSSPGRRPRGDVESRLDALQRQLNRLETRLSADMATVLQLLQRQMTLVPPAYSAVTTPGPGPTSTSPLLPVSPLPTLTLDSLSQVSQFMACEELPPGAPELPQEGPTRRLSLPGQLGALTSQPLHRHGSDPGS
# Text: as §3, §4, §5, §6
# CaV3.1 = CaV3.1 (Homo sapiens, UniProt O43497)
# Text: as §3, §4, §5, §6
# KV1.5 = KV1.5 (Homo sapiens, UniProt P22460)
# Sequence of KV1.5 (P22460 whole entry): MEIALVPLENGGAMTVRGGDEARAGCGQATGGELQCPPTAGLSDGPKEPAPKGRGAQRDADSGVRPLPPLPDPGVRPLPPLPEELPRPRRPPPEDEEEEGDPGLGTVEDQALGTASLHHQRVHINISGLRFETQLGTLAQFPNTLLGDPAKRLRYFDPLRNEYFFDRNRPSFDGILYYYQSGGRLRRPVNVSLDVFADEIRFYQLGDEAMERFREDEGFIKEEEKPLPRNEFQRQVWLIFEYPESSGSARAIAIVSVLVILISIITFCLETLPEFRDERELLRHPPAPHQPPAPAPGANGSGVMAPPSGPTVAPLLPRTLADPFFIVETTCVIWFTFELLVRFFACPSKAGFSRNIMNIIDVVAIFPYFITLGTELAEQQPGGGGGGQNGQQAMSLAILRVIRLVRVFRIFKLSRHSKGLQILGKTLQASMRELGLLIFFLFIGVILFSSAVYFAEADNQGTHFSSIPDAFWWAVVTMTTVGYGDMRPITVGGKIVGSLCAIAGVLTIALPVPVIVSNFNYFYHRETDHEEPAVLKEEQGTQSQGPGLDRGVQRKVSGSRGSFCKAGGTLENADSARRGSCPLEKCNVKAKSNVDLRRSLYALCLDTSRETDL
# Text: as §3, §4, §5, §6
# chimeric CB1/2 receptor = test: Two-electrode voltage-clamp, chimeric CB1/2-GIRK1/GIRK2-RGS4 coupling system expressed in oocytes; conditions: 100 μM OS + 0.5 μM WIN55,212-2
# H4R = H4R (Homo sapiens, UniProt Q9H3N8)
smiles,measurement,setting,value
"CCCCCCCC/C=C\CCCCCCCC(=O)NCCc1c[nH]c2ccc(O)cc12 [OS, oleoyl serotonin]","Time spent in the target quadrant (TQ), first probe trial",C57BL/6J mice [1]; 100 s trial,more than 25 s
same,Performance in first probe trial vs control (time in target quadrant),C57BL/6J mice [1]; day 6,performed worse than the control
same,Effect of OS injection on the WIN-induced decrease of time in the periphery,C57BL/6J mice [2]; OS 2 mg/kg before WIN 0.5 mg/kg,prevented this decrease
same,Total distance walked in open field (locomotion),"C57BL/6J mice [2]; OS 2 mg/kg, WIN 0.5 mg/kg, 10 min test",neither OS nor WIN affected locomotion
same,Time spent in the center zone of open field,"C57BL/6J mice [2]; OS 2 mg/kg, WIN 0.5 mg/kg, compared with Veh + WIN",spent more time than the WIN-only group
same,Activity in selectivity screening,α7-nAChR,did not show significant activity
same,"Effect on WIN55,212-2-induced inward K+ currents (IK,WIN+OS)","CB1 receptor (hCB1); 100 μM OS co-applied with 0.3 μM WIN55,212-2",inhibited
same,"Effect of OS alone on IK,basal","CB1 receptor (hCB1); 100 μM OS, 20–30 s, in HK","did not change the response of IK,basal"
same,IC50,"CB1 receptor (hCB1); IC50 of blocking CB1 receptor activated by WIN55,212-2, 0.03 μM WIN + OS",2.4 µM
same,IC50,"CB1 receptor (hCB1); IC50 of blocking CB1 receptor activated by WIN55,212-2, 0.1 μM WIN + OS",6.5 µM
same,IC50,"CB1 receptor (hCB1); IC50 of blocking CB1 receptor activated by WIN55,212-2, 0.3 μM WIN + OS",16.2 µM
same,IC50,"CB1 receptor (hCB1); IC50 of blocking CB1 receptor activated by WIN55,212-2, 1 μM WIN + OS",34.1 µM
same,Mode of antagonism,"CB1 receptor (hCB1); against WIN55,212-2",competitively blocked
same,Activity in selectivity screening,MRGPRX2,did not show significant activity
same,Activity in selectivity screening,MOR,did not show significant activity
same,Activity on non-injected oocytes,non-injected oocytes,did not show activity
same,Activity in selectivity screening,KV7.1,did not show significant activity
same,Activity in selectivity screening,NaV1.5,did not show significant activity
same,Activity in selectivity screening,hERG,did not show significant activity
same,Activity in selectivity screening,CaV3.1,did not show significant activity
same,Activity in selectivity screening,KV1.5,did not show significant activity
same,"Effect on WIN55,212-2-induced receptor-dependent inward K+ currents (IK,WIN)",chimeric CB1/2 receptor,did not change the response
same,Activity in selectivity screening,H4R,did not show significant activity
